The record followed here is the METLIN SMRT retention time set (Domingo-Almenara et al. 2019).

This data set can be described thus: gradient 5% acetonitrile 3 min, to 50% in 2 min, to 85% in 15 min, held 3 min, 100 µL/min. The note with it: column: Zorbax Extend-C18 2.1 x 50 mm; eluents: water / acetonitrile, 0.1% formic acid. A digest of the protocol:
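Data were gathered over 3 months by HPLC coupled to a quadrupole time-of-flight mass spectrometer, operated in positive and negative ionization mode. Mixtures of ~100 pure standards ran on a Zorbax Extend-C18 column (2.1 × 50 mm, 1.8 μm) at 100 μL/min, with water and acetonitrile each containing 0.1% formic acid and dead and dwell volumes of 40 μL and 900 μL. Retention time was read from adduct peaks picked by computer and checked manually.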
With `O=C(c1cccc(Br)c1)N1CCC(n2c(-c3ccoc3)nc3cccnc32)C1` (stereo not given), the RP-LC retention time was 775 s. `CCCNC(=O)c1ncn2c1C(=O)N(C1CC1)C(C)(C(=O)NCc1ccc(F)cc1)C2` (stereo not given): the RP-LC retention time turned out to be 692 s.

`Cc1ccc(C(=O)N2CCN(c3ccccn3)CC2)cc1NC(=O)C1=CSCCO1` returned an RP-LC retention time of 604 s.

Molecule `O=C(COC(=O)c1ccco1)Nc1ccc2c(c1)OCO2` returned an RP-LC retention time of 688 s. Under `COc1ccc(S(=O)(=O)N2CCCN(c3ccc(=O)n(-c4ccc(C)c(C)c4)n3)CC2)cc1` stands 903 s; under `CCCN1C(=O)c2ccccc2Sc2cc(-c3noc(CNC(=O)c4ccco4)n3)ccc21`, 911 s. The value for `Cc1ccc(C(=O)N2CCc3[nH]cnc3C23CCCCC3)s1` was 606 s; that for `CCn1ccc(C(=O)N2c3ccccc3CC2c2nc(C(C)C)no2)n1` (stereo not given) was 970 s; that for `Cc1ccccc1S(=O)(=O)N1CCC(C(=O)NCCc2csc(-c3cccs3)n2)CC1` was 922 s. `O=C(CCCc1ccccc1)N1CCN(c2ccc(Nc3cccnc3)nn2)CC1`: the RP-LC retention time came to 575 s. Under `CCc1cc(=O)n(CC(=O)N(C)c2cccc(C)c2)c(N2CCOCC2)n1` stands 764 s; under `CCOC(=O)c1c(C(C)(C)C)oc2ccc(OCC#N)cc12`, 1140 s. Under `Cc1ccc(NC(=O)N2CCC(n3cnc4cc(F)ccc4c3=O)CC2)cc1F` stands 832 s; under `CCOc1ccc(-c2csc3c(=O)n(Cc4cccnc4)cnc23)cc1OCC`, 699 s. Under `CCCNC(=O)Cn1c(C2CCCO2)nc2ccccc21` (stereo not given) stands 593 s; under `CC(C)(C)NC(=O)c1cc2c(n(-c3ccc(C(F)(F)F)cc3)c1=O)CCCC2=O`, 949 s.

In the case of `O=C(CC1CCCC1)NCCc1noc(C2CC2)n1`, the RP-LC retention time is 713 s. In the case of `CS(=O)(=O)Nc1ccc(Cc2noc(-c3ccc4[nH]cc(CCN)c4c3)n2)cc1`, the RP-LC retention time turned out to be 686 s. The value for `COC(=O)c1ncn2c1C(=O)N(Cc1ccccc1)C(C)(C(=O)NC1CCCCCC1)C2` (stereo not given) was 777 s; that for `Cc1ccc2c(C(=O)NCCN3CCCCC3)cc(NC(=O)C3CCC3)cc2n1` was 562 s. Molecule `CCc1ccc(-n2cc(C(=O)O)nn2)cc1` had an RP-LC retention time of 727 s. Under `Cc1cccc(-c2noc(-c3nn(CC(=O)NCC4CCCO4)c4ccccc34)n2)c1` (stereo not given) stands 1040 s; under `C/C=C1/CN2CC[C@]34C(=C(C=O)[C@H]1C[C@H]23)Nc1ccccc14`, 606 s; under `CCN(CC)S(=O)(=O)c1ccc(-c2c(C)noc2C)cc1`, 936 s. The molecule `COc1cc(OC)c(NC(=O)C2CCCN(C(=O)c3cc(C)cc(C)c3)C2)cc1Cl` (stereo not given) displayed an RP-LC retention time of 1010 s. Under `CCc1cc(C(=O)Nc2cc(OC)ccc2OC)nc2cc(-c3ccco3)nn12` stands 1260 s; under `CCCCNC(=O)C1CCN(Cc2cn(C)c3ccc(Cl)cc23)CC1`, 667 s. Under `O=C(Nc1c(F)cccc1F)N1CCC(c2ccccc2)C1` (stereo not given) stands 767 s; under `C/C=C/c1cc2c(c(=O)o1)C(=O)[C@@H](O)[C@H](C)O2`, 695 s; under `COc1cccc(C(=O)N2CCC3(CC2)NCc2ccccc2-n2ccnc23)c1`, 606 s.

As to `CC(C)(C)c1ccc(NC(=O)CSc2ncn[nH]2)cc1`, the RP-LC retention time stood at 719 s. The value for `COCCCNC(=O)Cn1cccc(-c2nc(-c3ccc(F)cc3)no2)c1=O` was 702 s. The value for `CCNc1nc(N(CC)CC)nc(-n2cnc(SC)n2)n1` was 964 s; that for `Cc1ccc2c(c1)c1c(n2CC(O)Cn2nc(C)cc2C)CCCC1` (stereo not given) was 1050 s. `O=C(CN1CCC(c2nc(-c3ccccc3)no2)CC1)NC1CCCCC1` registered an RP-LC retention time of 700 s. Under `CN(C)S(=O)(=O)N1CC(c2noc(-c3cccnc3)n2)C2(CCOCC2)C1` (stereo not given) stands 713 s; under `Cc1cc(NC(=O)C(=O)NCC(c2cn(C)c3ccccc23)N(C)C)no1` (stereo not given), 572 s; under `O=C(Cc1ccccc1Br)N1CCN(c2cc(-c3ccc(F)cc3)[nH]n2)CC1`, 867 s.

The molecule `CCn1c(=O)sc2cc(S(=O)(=O)N3CCC(C(=O)Nc4ccc(F)cc4C)CC3)ccc21` showed an RP-LC retention time of 911 s.

`Cc1cc(NC(=O)Cn2c(=O)n(C(C)C)c3ccc(-c4noc(C)n4)cc32)no1` had an RP-LC retention time of 755 s. Under `CCn1c(CC2CCN(C(=O)NCC(=O)OC)C2)nc2cccnc21` (stereo not given) stands 534 s; under `CCOC(=O)c1ccc(NC(=O)CSc2cc(N3CCC(C(=O)NC4CC4)CC3)ncn2)cc1`, 748 s; under `COc1cccc(-c2cc3c(=O)n(Cc4nc(-c5cccc(Br)c5)no4)ccn3n2)c1`, 1080 s. Under `COC(=O)c1c(C)[nH]c(C(=O)N2CCCC(C(=O)NCc3ccc(OC)cc3OC)C2)c1C` (stereo not given) stands 755 s; under `Cc1cc(=O)n(CCOc2ccc(F)cc2)c(N2CCSCC2)n1`, 898 s; under `CCN1CCn2cc(S(=O)(=O)Nc3ccc(F)cc3F)cc2C1=O`, 727 s. Under `COCc1cn(C2CN(C(=O)c3cc(C)nn3C)C2)nn1` stands 581 s; under `COCc1ncc(C)n1CCNC(=O)NC1CCCCC1`, 587 s.

The molecule `Cc1cc(C)cc(Nc2nc(C)cc3nn(CC(=O)NC(C)C)c(=O)n23)c1` returned an RP-LC retention time of 949 s.

`CS(=O)(=O)c1ccc(C(=O)Nc2ccc(Cl)c(-c3ccccn3)c2)c(Cl)c1` showed an RP-LC retention time of 891 s. Under `CCC1Oc2ccc(S(=O)(=O)N3CCC(C(=O)Nc4cc(C)ccc4OC)CC3)cc2NC1=O` (stereo not given) stands 936 s; under `Cc1ccccc1NC(=O)N1CCC(N2CCN(Cc3ccccc3)C2=O)CC1`, 794 s. `CC(C)(C)c1ccc(C(=O)N2CCN(c3nc(CN4CCOCC4)cs3)CC2)cc1` had an RP-LC retention time of 711 s. `Nc1ccc(-c2ccc3ccccc3n2)cc1`: the RP-LC retention time is 619 s. The value for `COc1ccc(NC(=O)Cn2c(C)nc3c(sc4nc(-c5ccccc5)ccc43)c2=O)c(OC)c1` was 1040 s; that for `Cc1cc(C)c(S(=O)(=O)N2CC(c3nc(Cc4ccccc4)no3)C2)c(C)c1` was 1190 s. Consider `O=S(=O)(c1ccc(-c2noc(-c3ccc(Cl)cc3)n2)cc1)N1CCOCC1`, for which the RP-LC retention time turned out to be 1160 s. On to `CSc1cccc(NC(=O)NC2CCN(c3ccc(C)c(C)c3)C2=O)c1` (stereo not given), for which the RP-LC retention time was 929 s. `CC(=O)N1c2ccc(S(=O)(=O)N3CCCC3)cc2CC1C(=O)NCCN1CCCCC1` (stereo not given) returned an RP-LC retention time of 592 s. The value for `CCn1c(=O)c(SCC(=O)NCCN(C)Cc2ccccc2)nc2ccccc21` was 641 s; that for `COc1ccc(C(=O)N2C[C@@H]3C[C@H]2C[C@@H]3NC(=O)c2ccccc2)cc1OC` was 678 s.

With `Cc1ccc(N2C(=O)C3N=NN(Cc4nc(-c5ccccc5C)no4)C3C2=O)cc1C` (stereo not given), the RP-LC retention time was found to be 1060 s. The molecule `CCCN1CCN(C(=O)C2=NN(c3ccc(Cl)cc3)c3ncccc3S2(=O)=O)CC1` returned an RP-LC retention time of 676 s. The value for `c1ccc(OCc2cn(CCC3CCCCN3)nn2)cc1` (stereo not given) was 552 s; that for `O=c1n(Cc2cccc(F)c2)nc2c(S(=O)(=O)N3CCCCC3)cccn12` was 872 s. Under `Cc1nn2c(CNC(=O)c3ccc(F)cc3)c(-c3ccccc3)nc2s1` stands 840 s. The value for `Cc1ccc(CN2C(=O)C3(CCOCC3)CC2c2nnnn2C(C)(C)C)cc1C` (stereo not given) was 862 s. Consider `CCc1ccccc1NC(=O)N1CCC(c2cc(=O)n3nccc3n2C)CC1`, for which the RP-LC retention time was found to be 663 s. Under `O=C(CCCN1CCN(Cc2ccc(F)cc2)C(=O)C1=O)NCc1ccc(F)cc1` stands 721 s; under `Cc1cc2[nH]c(C(=O)NCc3ccc(F)cc3)c(CN3CCOCC3)c2s1`, 689 s. Regarding `O=C(Nc1ccc(F)c(Cl)c1)C1CCN(C(=O)c2ncn3c2COC(c2ccccc2)C3)CC1` (stereo not given), the RP-LC retention time came to 864 s. `Cc1ccc(S(=O)(=O)N2CCC(CCC(=O)NC3CC3)CC2)cc1` registered an RP-LC retention time of 789 s. Under `CC1CCN(C(=O)C2CCN(c3cncnc3N3CCN(C)CC3)CC2)CC1` stands 558 s; under `CC(C)(C)NC(=O)N1CC2CC1C(=O)O2` (stereo not given), 596 s. Take `CCOC(=O)C1CCN(Cc2nc(-c3ccc(N4CCCCC4)nc3)no2)CC1`: the RP-LC retention time was 664 s.

Take `CCCNC(=O)C1CCCN(C(=O)c2cc(C)cc(C)c2)C1` (stereo not given): the RP-LC retention time was found to be 746 s. The value for `O=C(Nc1cccc(-c2cn3cccnc3n2)c1)c1ccc(Cl)cc1` was 739 s; that for `CCOc1ccc(NC(=O)Cn2c(N3CCOCC3)nc(CC)cc2=O)cc1` was 732 s. Under `CCOCCCNC(=O)N1CCN(c2nc3ccccc3n(Cc3ccc(C)cc3)c2=O)CC1` stands 1010 s; under `COc1ccc(CNC(=O)N(c2ccccc2)c2ccccc2)c(OC)c1`, 925 s.
